One data set has as its system MCF-7. Briefly: In vitro cytotoxicity, 3-day MTT assay, MCF-7. It is filed as cell-based, human. The conditions noted are these: for IC50: 3-day MTT assay. The protocol: (§1) In carrying out the following cytoloxicity assays, the method used corresponds substantially to the following example: • Cells were maintained in a continuous logarithmic culture in RMPI 1640 with L-glutamine medium, supplemented with 10% fetal calf serum, penicillin (100 IU/ml) and streptomycin (100 μg/ml). The cells were mildly trypsinized for passage and for use in assays. • On day one, 180 μl of trypsinized tumour cells (5×10^3 ml^−1) were placed in the wells of 96-well, flat-bottom microtiter plates. Columns 1 and 12 were filled with 300 μl medium to protect from evaporation. The plates were incubated for 24 hours at 37° C. and 5% CO2 in air to allow the cells to adhere and resume exponential growth prior to the addition of drugs. The compounds being tested were dissolved in DMSO and stored as 10 mM stock solutions at 4° C., protected from light. […] 20 μl of drug dilution was added to the other wells with the lowest concentration in column 3 and the highest concentration in column 11. The plates were incubated for 72 hours at 37° C. and 5% CO2 in air. Each compound was tested in triplicate. At the time of drug addition, a plate of untreated cells was read to provide an initial optical density value for use in the calculation of the IC50. • On day five the plates were read. 50 μl MTT (1 mg/ml^−1) was added per well and the plates incubated for a further 4 hours. The MTT is metaboliscd to form a blue formazan product. The MTT solution was aspirattd and 125 μl DMSO:glycine buffer (4:1) was added. The plates were placed on a plate shaker until the fornazan crystals had dissolved and absorbance was ready at 550 nm on a plate reader. • For each compound tested, a dose response curve was obtained and the IC50 statue (drug concentration at 50% inhibition of cell growth) was calculated.
(§2) (n=8) for a range of compounds in relation to MCF-7 and MDA 468 cell lines.

In another data set the test system is MDA468. Briefly: In vitro cytotoxicity, 3-day MTT assay, MDA468. It is filed as cell-based. The protocol: as §1, §2
The test system of another data set is COLO205 xenografts. The data set can be described thus: In vivo COLO205 xenograft study (FIG. 2).
Data set [1] in a line: Stability in plasma in vitro. It is filed as in vitro ADME, rat. The following applies: hydrochloride salts; rat and other mammalian plasma.
The test system of data set [2] is ER positive MCF-7 human breast tumor xenografts. The following applies: for in vivo growth retardation of MCF-7 xenografts: prodrugs.
In data set [3] the test system is ER negative MT-1 human breast tumor xenografts. The following applies: for in vivo growth retardation of MT-1 xenografts: prodrugs; for tumor growth inhibition in MT-1 xenografts: surviving mice treated with prodrug.
The conditions of data set [4]: rats, i.v., typical dose 25 mg/kg.
Setting [5] is: 72 h, asterisked values, IC50 concentration in μM.

Where a name gives a salt, the structure may show the parent alone.

On to “7-Fluoro-2-(4′-imino-3′-methylphenyl)benzothiazole [Ih]”, for which the figures for the half-maximal inhibitory concentration (IC50) in the data set on MCF-7 (n=8) and in the data set on MDA468 (n=8) were 0.00239 µM and 0.0103 µM, respectively.

Turning to `Cc1cc(-c2nc3c(F)cccc3s2)ccc1N` [Compound Ia], the IC50 was less than 0.0001 µM in the data set on MCF-7 (n=8) and 0.00013 µM in the data set with MDA468 (n=8).

Take `Cc1cc(-c2nc3cc(I)ccc3s2)ccc1N` [Compound Iak, 5-Iodo-2-(4′-amino-3′-methylphenyl)benzothiazole]: the melting point lay in the range of 200 to 202 °C. It took 0.493 µM to reach half-maximal inhibition in the data set on MCF-7 (Homo sapiens, MCF7, 72 h, n=8) (IC50). In the data set with MDA468 (setting [5]), this compound showed an IC50 of 80.9 µM.

`Cc1cc(-c2nc3ccc(F)cc3s2)ccc1NC(=O)C(C)N` (centres unmarked) [Iac, 6-Fluoro-2-(4′-amino-3′-Methylphenyl)benzothiazole Alanyl Amide Hydrochloride Salt]: the figures for the IC50 with MCF-7 (n=8) and in the data set with MDA468 (n=8) were 0.044 µM and 0.297 µM, respectively.

For `Cc1cc(-c2nc3ccc(F)cc3s2)ccc1NC(=O)C(N)CCCCN` (centres unmarked) [Iae, 6-Fluoro-2-(4′-amino-3′-methylphenyl)benzothiazole Lysyl Amide Dihydrochloride Salt], the IC50 was 0.147 µM in the data set on MCF-7 (n=8) and 0.328 µM in the data set with MDA468 (n=8).

Turning to `Cc1cc(-c2nc3cc(F)ccc3s2)ccc1NC(=O)C(C)N.Cl` (centres unmarked) [Iaf, 5-Fluoro-2-(4′-amino-3′-metbylphenyl)benzothiazole Alanyl Amide Hydrochloride Salt], the results for the IC50 in the data set on MCF-7 (n=8) and in the data set on MDA468 (n=8) were 0.00589 µM and 0.0377 µM, respectively. Further, the “IC50 in MCF-7 cells, fold lower than that of other amido prodrugs” value in the data set with MCF-7 (compared with other prodrugs) was more than 5 fold.

In the case of `Cc1cc(-c2nc3cccc(I)c3s2)ccc1N` [Ial, 7-Iodo-2-(4′-amino-3′-methylphenyl)benzothiazole], the 50% inhibitory concentration (IC50) in the data set with MCF-7 (Homo sapiens, MCF7, 72 h, n=8) worked out at 0.0283 µM; in the data set with MDA468 (72 h, n=8) it was 0.323 µM.

Compound `CC(=O)Nc1ccc(-c2nc3cc(F)ccc3s2)cc1C` [Iam, 5-Fluoro-2-(4′-acetamido-3′-methylphenyl)benzothiazole] gave a melting point of 219 to 221 °C. In the data set on MCF-7 (Homo sapiens, MCF7, 72 h, asterisked values, IC50 concentration in μM), this compound registered an IC50 of 7.64 µM. The compound further returned an IC50 with MDA468 (setting [5]) of 5.84 µM.

In turn, `N#Cc1cc(-c2nc3cc(F)ccc3s2)ccc1N` [Ian, 5-Fluoro-2-(4′-amino-3′-cyanophenyl)benzothiazole] registered a melting point of 268 to 270 °C. Besides, in the data set on MCF-7 (Homo sapiens, MCF7, 72 h, n=8), the IC50 was less than 0.0001 µM. The half-maximal inhibitory concentration (IC50) in the data set with MDA468 (72 h, n=8) was less than 0.0001 µM.

`Nc1ccc(-c2nc3cc(F)ccc3s2)cc1CO` [Iaq, 5-Fluoro-2-(4′-amino-3′-(hydroxymethyl)phenyl)benzothiazole] yielded a melting point of 242 to 245 °C. In addition, the half-inhibitory concentration (IC50) in the data set with MCF-7 (Homo sapiens, MCF7, 72 h, n=8) is less than 0.0001 µM. Half-maximal inhibition with MDA468 (72 h, n=8) (IC50) required 0.00043 µM.

As to `Cc1cc(-c2nc3cc(F)c(F)cc3s2)ccc1NC(=O)C(C)N` (centres unmarked) [Iar, 5,6-Difluoro-2-(4′-amino-3′-methylphenyl)benzothiazole Alany Amide Hydrochloride Salt], the values for the half-maximal inhibitory concentration (IC50) in the data set on MCF-7 (n=8) and in the data set with MDA468 (n=8) were 0.0331 µM and 0.217 µM, respectively.

In the case of `Cc1cc(-c2nc3cc(F)c(F)cc3s2)ccc1NC(=O)C(N)CCCCN` (centres unmarked) [Ias, 5,6-Difluoro-2-(4′-amino-3′-methylphenyl)benzothiazole Lysyl Amide Dihydrochloride], the IC50 worked out at 0.0307 µM with MCF-7 (n=8) and 0.302 µM with MDA468 (n=8).

For the compound `Nc1ccc(-c2nc3c(F)cccc3s2)cc1` [Ic, 4-Fluoro2-(4-aminophenyl)benzothiazole], the IC50 with MCF-7 (Homo sapiens, MCF7, 72 h, n=8) worked out at 0.00854 µM; in the data set on MDA468 (72 h, n=8), 0.0294 µM.

As for `Nc1ccc(-c2nc3ccc(F)cc3s2)cc1` [Id, 6-Fluoro2-(4′-aminophenyl)benzothiazole], the half-maximal inhibitory concentration (IC50) is less than 0.0001 µM in the data set on MCF-7 (Homo sapiens, MCF7, 72 h, n=8) and 0.0481 µM with MDA468 (72 h, n=8).

Turning to `Cc1cc(-c2nc3c(F)c(F)ccc3s2)ccc1N` [Ie, 4,5-Difluoro-2-(4′-amino-3′-methylphenyl)benzothiazole], the IC50 is 0.00064 µM in the data set with MCF-7 (Homo sapiens, MCF7, 72 h, n=8) and 0.00067 µM in the data set with MDA468 (72 h, n=8).

`Cc1cc(-c2nc3c(F)cc(F)cc3s2)ccc1N` [If]: the IC50 with MCF-7 (n=8) is less than 0.0001 µM; in the data set on MDA468 (n=8), 0.00535 µM.

On to `Cc1cc(-c2nc3cc(F)cc(F)c3s2)ccc1N` [Ig, 5,7-Difluoro-2-(4′-amino3′-methylphenyl)benzothiazole], for which the IC50 in the data set with MCF-7 (Homo sapiens, MCF7, 72 h, n=8) amounted to 0.0009 µM; with MDA468 (72 h, n=8), 0.0044 µM.

`Cc1cc(-c2nc3cc(F)c(F)cc3s2)ccc1N` [Ii, 5,6-Difluoro-2-(4′-amino-3′-methylphenyl)benzothiazole]: the IC50 with MCF-7 (Homo sapiens, MCF7, 72 h, n=8) was less than 0.0001 µM; in the data set on MDA468 (72 h, n=8) it was 0.00355 µM.

As to `Nc1ccc(-c2nc3cc(F)ccc3s2)cc1` [Il, 5-Fluoro-2-(4′-aminophenyl)benzothiazole], the half-inhibitory concentration (IC50) with MCF-7 (Homo sapiens, MCF7, 72 h, n=8) is less than 0.0001 µM; with MDA468 (72 h, n=8), less than 0.0001 µM.

In the case of `Nc1ccc(-c2nc3c(F)cccc3s2)cc1I` [Im, 4-Fluoro-2-(4′-amino-3′-iodophenyl)benzothiazole], the IC50 in the data set with MCF-7 (Homo sapiens, MCF7, 72 h, n=8) turned out to be 0.00788 µM; in the data set with MDA468 (72 h, n=8), 0.00911 µM.

`Nc1ccc(-c2nc3cc(F)ccc3s2)cc1I` [In, 5-Fluoro-2-(4′-amino-3′-iodophenyl)benzothiazole]: the IC50 with MCF-7 (Homo sapiens, MCF7, 72 h, n=8) was less than 0.0001 µM; in the data set on MDA468 (72 h, n=8) it was less than 0.0001 µM.

As for `Nc1ccc(-c2nc3ccc(F)cc3s2)cc1I` [Io, 6-Fluoro-2-(4′-amino-3′-iodophenyl)benzothiazole], the 50% inhibitory concentration (IC50) in the data set with MCF-7 (Homo sapiens, MCF7, 72 h, n=8) was less than 0.0001 µM; in the data set with MDA468 (72 h, n=8), less than 0.0001 µM.

Take `Nc1ccc(-c2nc3c(F)cccc3s2)cc1Cl` [Ip, 4-Fluoro-2-(4′-amino-3′-chlorophenyl)benzothiazole]: the 50% inhibitory concentration (IC50) in the data set with MCF-7 (Homo sapiens, MCF7, 72 h, n=8) is 0.00095 µM; in the data set with MDA468 (72 h, n=8), 0.00193 µM.

`Nc1ccc(-c2nc3cc(F)ccc3s2)cc1Cl` [Iq, 5-Fluoro-2-(4′-amino-3′-chlorophenyl)benzothiazole]: the half-inhibitory concentration (IC50) was found to be 0.00709 µM in the data set with MCF-7 (Homo sapiens, MCF7, 72 h, n=8) and 0.0189 µM in the data set with MDA468 (72 h, n=8).

Regarding `Nc1ccc(-c2nc3ccc(F)cc3s2)cc1Cl` [Ir, 6-Fluoro-2-(4′-amino3′chlorophenYl)bcnzothiazole], the results for the concentration for half-maximal inhibition (IC50) with MCF-7 (n=8) and in the data set on MDA468 (n=8) were 0.00408 µM and 0.0117 µM, respectively.

Take `Nc1ccc(-c2nc3c(F)cccc3s2)cc1Br` [Is, 4-Fluoro-2-(4′amino-3′-bromophenyl)benzothiazole]: the IC50 in the data set on MCF-7 (Homo sapiens, MCF7, 72 h, n=8) came out at 0.0382 µM; with MDA468 (72 h, n=8), 0.024 µM.

Consider `Nc1ccc(-c2nc3cc(F)ccc3s2)cc1Br` [It, 5-Fluoro-2-(4′-amino-3′-bromophenyl)benzothiazole], for which the IC50 with MCF-7 (Homo sapiens, MCF7, 72 h, n=8) is less than 0.0001 µM; with MDA468 (72 h, n=8), 0.0002 µM.

As for `Nc1ccc(-c2nc3ccc(F)cc3s2)cc1Br` [Iu, 6-Fluoro2-(4′-amino-3′-bromophenyl)benzothiazole], the IC50 was found to be 0.0455 µM with MCF-7 (Homo sapiens, MCF7, 72 h, n=8) and 0.0687 µM with MDA468 (72 h, n=8).

In the case of `CC(N)C(=O)Nc1ccc(-c2nc3ccccc3s2)cc1.Cl` (centres unmarked) [Iv, 2-(4′-Aminophenyl)benzothiazole Alanyl Amide Hydrochloride Salt], the 50% inhibitory concentration (IC50) with MCF-7 (n=8) came to 0.06 µM; in the data set on MDA468 (n=8), 0.04 µM. For the same compound, in the data set with COLO205 xenografts, the “tumour growth inhibition, COLO205 xenografts (FIG. 2)” value is “tumour growth inhibition observed”.

As for `Cc1cc(-c2nc3ccccc3s2)ccc1NC(=O)C(C)N.Cl` (centres unmarked) [Iw, 2-(4′-Amino-3′-methylphenyl)benzothiazole Alanyl Amide Hydrochloride Salt], the IC50 in the data set with MCF-7 (n=8) turned out to be 0.36 µM. The half-inhibitory concentration (IC50) in the data set with MDA468 (n=8) was 0.34 µM. Moreover, the “stability in plasma in vitro” value in data set [1] was “stable”. Moreover, the “growth retardation of MCF-7 xenografts compared with (Iz)” value in data set [2] (12.5 mg/kg given i.v.) is reported as “greater extent of growth retardation”. Besides, the “in vivo growth retardation of MCF-7 xenografts” value in data set [2] is listed as “significant in vivo growth retardation”. Moreover, in data set [3], the “in vivo growth retardation of MT-1 xenografts” value is listed as “significant in vivo growth retardation” and the “tumor growth inhibition in MT-1 xenografts” value is reported as “moderate tumor growth inhibition”. Besides, in data set [4], the “removal from plasma and reconversion to parent compound in vivo” value is “readily removed from such plasma and reconverted to their parent compound in vivo”.

As for `Cc1cc(-c2nc3ccccc3s2)ccc1NC(=O)C(N)CCCCN.Cl.Cl` (centres unmarked) [Iz, 2-(4′-Amino-3′-methylphenyl)benzothiazole Lysyl Amide Dihydrochioride Salt], the half-inhibitory concentration (IC50) in the data set on MCF-7 (n=8) is 0.08 µM; with MDA468 (n=8) it was 0.07 µM. Further, the “stability in plasma in vitro” value in data set [1] is given as “stable”. The body weight loss result in data set [2] (prodrug, dose dependence) is on record as “Dose-dependent body weight loss”. In data set [2], the “in vivo growth retardation of MCF-7 xenografts” value was “significant in vivo growth retardation”. For the same compound, the “in vivo growth retardation of MT-1 xenografts” value in data set [3] was “significant in vivo growth retardation”. Moreover, in data set [3], the “tumor growth inhibition in MT-1 xenografts” value is listed as “moderate tumor growth inhibition”. The “removal from plasma and reconversion to parent compound in vivo” value in data set [4] is “readily removed from such plasma and reconverted to their parent compound in vivo”.
